Test results: article PMC6266505, “Limonoids Containing a C1–O–C29 Moiety: Isolation, Structural Modification, and Antiviral Activity” (Marine Drugs, 2018)
Read-outs that look alike come from different tables or passages of the source.

Tests used:
[1] = tested on: IAV; assay: Anti-IAV bioassay; assay type: cell-based; settings: Influenza A virus, read-out: Inhibition Rate (%) against IAV, positive control
[2] = tested on: influenza A virus (IAV); settings: cited from earlier work
[3] = in vitro; settings: human
[4] = tested on: HIV-1; assay: microbe, parasite or virus in culture
[5] = cited from earlier work
[6] = tested on: HIV-1; settings: read-out: IC50 against HIV-1; cited from earlier work

NC(=O)c1ncn([C@@H]2O[C@H](CO)[C@@H](O)[C@H]2O)n1 [ribavirin]
inhibition at 60 µM [1]: 87.5 ± 2.86%

COC(=O)C[C@H]1[C@@]2(C)C[C@]3(O)[C@H](C(=O)[C@H]2OC(C)=O)C2=C(CC[C@]4(C)C2=CC(=O)O[C@H]4c2ccoc2)[C@]13C [thaixylomolin M]
antiviral activity against influenza A virus (IAV), in words [2]: moderate antiviral activity

COC(=O)C[C@@H]1[C@@]2(C)[C@H]3CC[C@]4(C)C(=C3[C@@]3(O)[C@@H](OC(C)=O)C(=O)[C@]1(C)C[C@@]23O)CC(=O)O[C@H]4c1ccoc1 [thaixylomolin I]
antiviral activity against influenza A virus (IAV), in words [2]: moderate antiviral activity | IC50 ([2]; read-out: IC50 against IAV): 77.1 ± 8.7 µM

C/C=C(\C)C(=O)O[C@@H]1[C@@H]2C=C3[C@@H]4CC(=O)O[C@@H](c5ccoc5)[C@]4(C)CC[C@@H]3[C@]3(C)[C@@H](CC(=O)OC)[C@]1(C)CO[C@]23O [Compound 6, granatumin L]
CC50 [3]: > 100 µM | IC50 ([4]; Human immunodeficiency virus 1, SUP-T1, read-out: IC50 Value (μM) against HIV-1): 19.23 ± 0.12 µM | inhibition at 20 µM ([4]; Human immunodeficiency virus 1, SUP-T1, read-out: Inhibition Rate (20.0 μM) (%) against HIV-1): 67.1 ± 3.04%

CC[C@H](C)C(=O)O[C@@H]1C(=O)[C@@]2(OC(=O)C(C)C)[C@@]3(O)C[C@@]1(C)[C@H](CC(=O)OC)[C@@]3(C)[C@H]1CC[C@@]3(C)[C@H](c4ccoc4)OC(=O)C[C@]34O[C@]142 [Krishnolide A]
CC50 [5]: 78.5 ± 1.69 µM | IC50 [6]: 17.4 ± 1.65 µM

COC(=O)C[C@H]1[C@@]2(C)C[C@]3(O)[C@H](C(=O)[C@H]2OC(C)=O)C2=C4CC(=O)O[C@@H](c5ccoc5)[C@]4(C)CC[C@@H]2[C@]13C [thaixylomolin K]
antiviral activity against influenza A virus (IAV), in words [2]: moderate antiviral activity
